# In patent publication US11827628B2, “Compositions and methods for inhibition of the JAK pathway” (Rigel Pharmaceuticals, Inc., priority 2005, dated 2023):
# Where two headings read alike, the source gives them in different places.
# Assays:
# [1] = tested on: IL-4 stimulated expression of CD23 in human Ramos B cells (JAK-1 and JAK-3); test: Assay for Ramos B-Cell Line Stimulated with IL-4 (CD23 upregulation, FACS); format: cell-based; conditions: Ramos B-cell line stimulated with IL-4; CD23 expression by FACS; read-out: IC50, Example 41
# Method in brief: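 Steps: Ramos B cells are suspended in RPMI with 5% serum, exposed to compound for 1 h at 37 °C, stimulated with IL-4 (final 50 units/mL) for 20-24 h, stained for CD23 and analysed by flow cytometry. IC50 is calculated.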
# [2] = tested on: up-regulation of ICAM-1 (CD54) by IFNγ in U937 human monocytic cells; test: U937 IFNγ ICAM1 FACS Assay; format: cell-based; conditions: ICAM-1 expression by FACS, read-out: IC50, Example 44
# Method in brief: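 Readout was the geometric-mean APC anti-ICAM-1 signal by FACS on live U937 monocytic cells, with % live cells also recorded. Cells were exposed to compounds (8 points, 3-fold dilutions, duplicates) for 30 min at 37 °C before 18–24 h of IFNγ stimulation. EC50 values were computed from the dose curve.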
# [3] = U937 cells stimulated with IFNγ
Compound,IC50 [1],"IC50 ([2]; Homo sapiens, U-937, U937 cells stimulated with IFNγ)","IC50 [2, 3]"
"Cc1cc(COc2ccc(Nc3nc(Nc4ccc(F)c(S(N)(=O)=O)c4)ncc3F)cc2C)no1 [Compound I-237, N2-(3-Aminosulfonyl-4-fluorophenyl)-5-fluoro-N4-[3methyl-4-(5-methylisoxazol-3-yl)methyleneoxyphenyl]-2,4-pyrimidinediamine]",147 nM,,3580 nM
"Cc1cc(Nc2nc(Nc3cccc(S(N)(=O)=O)c3)ncc2F)ccc1OCC#N [Compound I-23, N2-(3-Aminosulfonyl)phenyl-N4-(4-cyanomethoxy-3-methyl)phenyl-5-fluoro-2,4-pyrimidinediamine]",30.1 nM,,455 nM
"CCN(CC)CCNS(=O)(=O)c1ccc(Nc2ncc(F)c(Nc3ccc(OCc4cc(C)on4)c(C)c3)n2)cc1 [Compound I-245, N2-[4-(2-N,N-Diethylaminoethyl)aminosulfonylphenyl)-5-fluoro-N4-[3-methyl-4-(5-methylisoxazol-3-yl)methyleneoxyphenyl]-2,4-pyrimidinediamine]",202 nM,,4190 nM
"N#CCOc1ccc(Nc2nc(Nc3cccc(S(N)(=O)=O)c3)ncc2F)cc1 [Compound I-17, N2-(3-Aminosulfonyl)phenyl-N4-(4-cyanomethoxy)phenyl-5-fluoro-2,4-pyrimidinediamine]",48.7 nM,,365 nM
"Cc1noc(COc2ccc(Nc3nc(Nc4ccc(F)c(S(N)(=O)=O)c4)ncc3F)cc2)n1 [Compound I-266, N2-(3-Aminosulfonyl-4-fluorophenyl)-5-fluoro-N4-[4-(3-methyl-1,2,4-oxadiazol-5-yl)methyleneoxyphenyl]-2,4-pyrimidinediamine]",85.1 nM,,824 nM
"CNS(=O)(=O)c1cc(Nc2ncc(F)c(Nc3cccc(OCc4nc(C)no4)c3)n2)ccc1C [Compound I-255, 5-Fluoro-N2-[3-(N-methylaminosulfony)-4-methylphenyl]-N4-[3-(3-methyl-1,2,4-oxadiazol-5-yl)methyleneoxyphenyl]-2,4-pyrimidinediamine]",256 nM,,5520 nM
"Cc1nnc(COc2ccc(Nc3nc(Nc4ccc(F)c(S(N)(=O)=O)c4)ncc3F)cc2)o1 [Compound I-278, N2-(3-Aminosulfonyl-4-fluorophenyl)-5-fluoro-N4-[4-(5-methyl-1,3,4-oxadiazol-2-yl)methyleneoxyphenyl]-2,4-pyrimidinediamine]",193 nM,,2270 nM
"Cc1noc(COc2ccc(Nc3nc(Nc4ccc(S(N)(=O)=O)cc4)ncc3F)cc2)n1 [Compound I-268, N2-(4-Aminosulfonylphenyl)-5-fluoro-N4-(4-[3-methyl-1,2,4-oxadiazol-5-yl]methyleneoxyphenyl)-2,4-pyrimidinediamine]",60.7 nM,,219 nM
"Cc1cc(COc2ccc(Nc3nc(Nc4cccc(S(=O)(=O)N(Cc5oc(=O)oc5C)Cc5oc(=O)oc5C)c4)ncc3F)cc2)no1 [Compound I-248, N2-{3-[N-N-Di-[(5-Methyl-1,3-dioxolene-2-one-4-yl)methylene]]aminosulfonylphenyl}-5-fluoro-N4-[4-(5-methylisoxazol-3-yl)methyleneoxyphenyl]-2,4-pyrimidinediamine]",388 nM,,2660 nM
"Cc1cc(COc2ccc(Nc3nc(Nc4cc(C)c(Cl)c(S(N)(=O)=O)c4)ncc3F)cc2)no1 [Compound I-218, N2-(3-Aminosulfonyl-4-chloro-5-methylphenyl)-5-fluoro-N4-[4-(5-methylisoxazol-3-yl)methyleneoxyphenyl]-2,4-pyrimidinediamine]",72.6 nM,,434 nM
"CCN(CC)CCNS(=O)(=O)c1cccc(Nc2ncc(F)c(Nc3ccc(OCc4cc(C)on4)c(C)c3)n2)c1 [Compound I-244, N2-[3-(2-N,N-Diethylaminoethyl)aminosulfonylphenyl)-5-fluoro-N4-[3-methyl-4-(5-methylisoxazol-3-yl)methyleneoxyphenyl]-2,4-pyrimidinediamine]",285 nM,,3120 nM
"Cc1cc(Nc2nc(Nc3ccc(C)c(S(N)(=O)=O)c3)ncc2F)ccc1OCC#N [Compound I-24, N2-(3-Aminosulfonyl-4-methyl)phenyl-N4-(4-cyanomethoxy-3-methyl)phenyl-5-fluoro-2,4-pyrimidinediamine]",54.2 nM,,1040 nM
"Cc1nc(COc2ccc(Nc3nc(Nc4cccc(S(N)(=O)=O)c4)ncc3F)cc2)no1 [Compound I-276, N2-(3-Aminosulfonyl)phenyl-5-fluoro-N4-[4-(5-methyl-1,2,4-oxadiazol-3-yl)methoxy]phenyl-2,4-pyrimidinediamine]",135 nM,,822 nM
"Cc1cc(COc2ccc(Nc3nc(Nc4ccc(F)c(S(N)(=O)=O)c4)ncc3F)cc2)no1 [Compound I-233, N2-(3-Aminosulfonyl-4-fluorophenyl)-5-fluoro-N4-[4-(5-methylisoxazol-3-yl)methyleneoxyphenyl]-2,4-pyrimidinediamine]",148 nM,,1750 nM
"Cc1noc(COc2ccc(Nc3nc(Nc4cc(C)c(Cl)c(S(N)(=O)=O)c4)ncc3F)cc2)n1 [Compound I-265, N2-(3-Aminosulfonyl-4-chloro-5-methylphenyl)-5-fluoro-N4-[4-(3-methyl-1,2,4-oxadiazol-5-yl)methyleneoxyphenyl]-2,4-pyrimidinediamine]",42.3 nM,,415 nM

# Other lines, results leading:
IC50 [1],"IC50 ([2]; Homo sapiens, U-937, U937 cells stimulated with IFNγ)","IC50 [2, 3]",Compound
64.5 nM,1650 nM,,"NS(=O)(=O)c1cccc(Nc2ncc(F)c(Nc3ccc(Cc4ccncc4)cc3)n2)c1 [III-70, N2-(3-Aminosulfonylphenyl)-5-fluoro-N4-[4-(4-pyridinylmethyl)phenyl]-2,4-pyrimidinediamine]"
428 nM,,11500 nM,"N2-(3-Aminocarbonyl-5-methylphenyl)-5-fluoro-N2-[4-(1-ethylpyrazol-5-yl)amidophenyl)-2,4-pyrimidinediamine [II-20]"
84 nM,,6500 nM,"Cc1ccc(Nc2ncc(F)c(Nc3ccc(OC4CCCN(C)C4)c(Cl)c3)n2)cc1S(N)(=O)=O (racemic) [II-3, Racemic N2-(3-aminosulfonyl-4-methylphenyl)-N4-{3-chloro-4-[(1-methylpiperidin-3-yl)oxy]phenyl}-5-fluoro-2,4-pyrimidinediamine]"
64.2 nM,,168 nM,Cc1ccc(Nc2ncc(C)c(Nc3ccc(CCC#N)cc3)n2)cc1S(N)(=O)=O [III-11]
138 nM,,2250 nM,"N#CCc1ccc(Nc2nc(Nc3ccc(Cl)c(S(N)(=O)=O)c3)ncc2F)cc1 [III-8, N2-(3-Aminosulfonyl-4-chloro)phenyl-N4-(4-cyanomethyl)phenyl-5-fluoro-2,4-pyrimidinediamine]"
85.1 nM,,1090 nM,"Cc1ccc(Nc2ncc(F)c(Nc3ccc(CC#N)cc3)n2)cc1S(N)(=O)=O [III-7, N2-(3-Aminosulfonyl-4-methyl)phenyl-N4-(4-cyanomethyl)phenyl-5-fluoro-2,4-pyrimidinediamine]"
117 nM,,1440 nM,"NS(=O)(=O)c1cccc(Nc2ncc(F)c(Nc3cccc(CNC(=O)C4CC4)c3)n2)c1 [III-39, N2-(3-aminosulfonyl)phenyl-N4-(3-cyclopropylcarbonylaminomethyl)phenyl-5-fluoro-2,4-pyrimidinediamine]"
